In patent US11642332B2, “(2R,4R)-5-(5′-chloro-2′-fluorobiphenyl-4-yl)-2-hydroxy-4-[(5-methyloxazole-2-carbonyl)amino]pentanoic acid” (THERAVANCE BIOPHARMA R&D IP, LLC, priority 2015, dated 2023):

Experiment: Renal excretion of Compound 1 in rat
Format: in vivo, male Sprague Dawley rats
Conditions: IV 0.5 mg/kg
Description: An important factor for insuring appropriate long term drug dosing and correct steady-state drug concentrations in patients is drug clearance. In general, decreased drug clearance results in higher drug concentrations and greater drug effects. In order to understand renal clearance of Compound 1, the percent of administered dose recovered in urine following a single IV dose was assessed in three animal species. Three separate studies in male Sprague Dawley rats, male beagle dogs and male cynomolgus monkeys, respectively, were conducted and the procedure and experimental results are described below.
Male Sprague Dawley rats (N=3), having body weights of 0.348 to 0.362 kg, received an IV dose of Compound 1 at 0.5 mg/kg as part of a dosing cassette. Compound 1 was dissolved in 5% NaHCO3 in D5W (5% dextrose in water, pH 7.4) and filtered through a […] polyvinyl difluoride (PVDF) syringe filter prior to administration. The rats had access to food ad libitum before and after administration of Compound 1. Urine samples were collected in metabolic cages and maintained on frozen dry ice during collection. The samples were thawed and the volume of the urine was recorded. An aliquot of the urine sample was transferred to a polypropylene storage tube, frozen and stored (−80° C.) prior to bioanalysis.
Rat urine concentrations of Compound 1 were determined by LC/MS/MS. […]

- Amount of Compound 1 Excreted in Urine over Collection Period (0-24 hrs) Mean: 0.0462 µg
Structure (SMILES): Cc1cnc(C(=O)N[C@H](Cc2ccc(-c3cc(Cl)ccc3F)cc2)C[C@@H](O)C(=O)O)o1 [Compound 1, (2R,4R)-5-(5′-Chloro-2′-fluorobiphenyl-4-yl)-2-hydroxy-4-[(5-methyloxazole-2-carbonyl)amino]pentanoic Acid]
